This is an account of results in patent publication US8846675B2, “N-linked heterocyclic receptor agonists for the treatment of diabetes and metabolic disorders” (Cymabay Therapeutics, Inc., priority 2007, dated 2014).

The target in the experiment is T1, IC-GPCR2 (Homo sapiens, UniProt Q8TDV5).
T1 construct: expressed in transfected cells
T1 sequence (Q8TDV5 1-335 S309L): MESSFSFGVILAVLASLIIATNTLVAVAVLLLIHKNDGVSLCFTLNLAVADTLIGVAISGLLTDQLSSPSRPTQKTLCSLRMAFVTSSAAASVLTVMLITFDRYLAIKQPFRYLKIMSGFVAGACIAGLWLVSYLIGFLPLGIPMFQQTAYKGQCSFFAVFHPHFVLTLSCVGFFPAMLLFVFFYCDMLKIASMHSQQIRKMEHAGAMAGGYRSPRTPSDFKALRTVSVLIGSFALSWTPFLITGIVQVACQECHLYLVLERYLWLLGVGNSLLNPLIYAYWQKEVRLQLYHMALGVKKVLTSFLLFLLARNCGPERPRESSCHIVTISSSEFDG
As to the kind of experiment: Stimulation of cAMP in CHO cell line stably expressing IC-GPCR2 (HTRF cAMP dynamic kit). In kind it is cell-based. The conditions noted are these: 3 μM compound; relative to maximal activity of 5-Ethyl-2-{4-[4-(4-tetrazol-1-yl-phenoxymethyl)-thiazol-2-yl]-piperidin-1-yl}-pyrimidine (=100%); IC-GPCR2 stably expressing CHO cells, 30 minutes. On the procedure: This assay was developed using a stable cell line expressing IC-GPCR-2, generated as follows. IC-GPCR2 (Seq. ID No. 1) was cloned into Gateway pDEST 40vector (Invitrogen), using the Gateway cloning system (invitrogen) according to the manufacturers instructions. A stable cell line was generated by transfecting a 10 cm plate of CHO cells (source) with 8 ug of this construct using Transit-CHO transfection kit (Mirus). CHO cells were plated the day prior to transfection at a density of 3,000,000 cells/plate. Clones were selected using the antibiotic G418 at 500 ug/ml. 23 clones were picked and assayed for the expression of the receptor by measuring changes in intracellular cAMP levels in response to an IC-GPCR2 agonist (Arena 51).
To measure cAMP activity in response to IC-GPCR2 agonist, the clones were plated in 96 well plates at 17500 cells per well. On the day after plating, cells were incubated with the IC-CPCR2 agonist at […] for 30 minutes in Ham's F12 Media (Gibco) with 0.04% DMSO. cAMP was measured using the cAMP dynamic kit from C is Bio (Bedford, Mass.) according to the manufacturers instructions. Briefly, cells were lysed, and cAMP levels determined by competitive immunoassay using D2 labeled cAMP, and europium cryptate tagged anti cAMP antibody. When in close proximity, the D2 and europium cryptate undergo fluorescence resonance energy transfer (FRET), which is measured as a fluorescence ratio (665 nm/620 nm). Unlabelled cAMP in the cell lysatc competed with the D2 labeled cAMP for the europium crypate labeled antibody. The resulting decrease in FRET signal corresponded to intracellular cAMP levels. Fluorescence was read on a BMG Labtech PHERAstar, software version 1.50.
The clone with the greatest response to IC-GPCR2 agonist was selected for the screening assay.
Compounds were dissolved in 100% DMSO to a concentration of […] to provide stock solutions. To determine activity against IC-GPCR2, compounds were incubated with IC-GPCR2 stably expressing cells (described above), at 6-8 concentrations ranging from 0.00003 to 10 micromolar, in 96 well plates, in 50 ul of Hams F12 media for 30 minutes. Cells were plated at 17500 cells per well 1 day before running the assay. All compounds were also screened against the parental CHO cells. cAMP was measured using the cAMP dynamic kit from Cis Bio (Bedford, Mass.), according to the manufacturer's instructions. Briefly, cells were lysed and cAMP levels determined by competitive immunoassay using D2 labeled cAMP, and europium cryptate tagged anti cAMP antibody. When in close proximity, the D2 and europium cryptate undergo fluorescence resonance energy transfer (FRET), which is measured as a fluorescence ratio (665 nm/620 nm). Unlabelled cAMP in the cell lysate competed with the D2 labeled cAMP for the europium crypate labeled antibody. The resulting decrease in FRET signal corresponded to intracellular cAMP levels
To determine percent activity for a tested compound, the FRET signal value obtained at a particular concentration are compared to the Maximal FRET signal value obtained for 5-Ethyl-2-{4-[4-(4-tetrazol-1-yl-phenoxymethyl)-thiazol-2-yl]-piperidin-1-yl}-pyrimidine. The maximal activity of 5-Ethyl-2-{4-[4-(4-tetrazol-1-yl-phenoxymethyl)-thiazol-2-yl]-piperidin-1-yl}-pyrimidine is designated as 100% activity. Typically, the concentration of 5-Ethyl-2-{4-[4-(4-tetrazol-1-yl-phenoxymethyl)-thiazol-2-yl]-piperidin-1-yl}-pyrimidine in the assay was approximately 0.1 μM. The synthesis of 5-Ethyl-2-{4-[4-(4-tetrazol-1-yl-phenoxymethyl)-thiazol-2-yl]-piperidin-1-yl}-pyrimidine is disclosed in co-owned pending U.S. patent application Ser. No. 11/964,461, herein incorporated by reference. Activities of compounds that were tested are shown in Table 1 below and are expressed as % activity at 3 μM compound compared to the maximal activity of 5-Ethyl-2-{4-[4-(4-tetrazol-1-yl-phenoxymethyl)-thiazol-2-yl]-piperidin-1-yl}-pyrimidine at 3 μM.

Structures are written as SMILES. Counter-ions that a name gives are not always drawn.

For `CCCCS(=O)(=O)N1CCC(n2ncc(COc3ccc(-n4cnnn4)nc3)n2)CC1` [Example 46, 5-((2-(1-(Butylsulfonyl)piperidin-4-yl)-2H-1,2,3-triazol-4-yl)methoxy)-2-(1H-tetrazol-1-yl)pyridine], the “% activity at 3 μM” value was 79.78%.
As to `O=S(=O)(Cc1ccccc1)N1CCC(n2ncc(COc3ccc(-n4cnnn4)nc3)n2)CC1` [Example 47, 5-((2-(1-(Benzylsulfonyl)piperidin-4-yl)-2H-1,2,3-triazol-4-yl)methoxy)-2-(1H-tetrazol-1-yl)pyridine], the “% activity at 3 μM” value was found to be 74.90%.
Take `Cc1ncccc1OCc1cnn(C2CCN(c3ncc(C(F)(F)F)cn3)CC2)n1` [Example 48]: the “% activity at 3 μM” value is given as 83.24%.
Regarding `CC(C)(C)OC(=O)N1CCC(CC(=O)N2CCC(n3ncc(COc4ccc(-n5cnnn5)nc4)n3)CC2)CC1` [Example 50, tert-Butyl 4-(2-(4-(-((6-(1H-tetrazol-1-yl)pyridine-3-yloxy)methyl)-2H-1,2,3-triazol-2-yl)piperidin-1-yl)-2-oxoethyl)piperidine-1-carboxylate], the “% activity at 3 μM” value was determined as 49.51%.
Consider `O=C(CC1CCNCC1)N1CCC(n2ncc(COc3ccc(-n4cnnn4)nc3)n2)CC1` [Example 51, 1-(4-(4-((6-(1H-Tetrazol-1-yl)pyridin-3-yloxy)methyl)-2H-1,2,3-triazol-2-yl)piperidin-1-yl)-2-(piperidin-4-yl)ethanone hydrochloride], for which the “% activity at 3 μM” value was 57.93%.
Consider `COC(=O)Cc1cnc(N2CCC(n3ncc(COc4ccc(-n5cnnn5)nc4)n3)CC2)nc1` [Example 52, Methyl 2-(2-(4-(4-((6-(1H-tetrazol-1-yl)pyridin-3-yloxy)methyl)-2H-1,2,3-triazol-2-yl)piperidin-1-yl)pyrimidin-5-yl)acetate], for which the “% activity at 3 μM” value came to 52.86%.
As to `C[C@H](NC(=O)OC(C)(C)C)C(=O)N1CCC(n2ncc(COc3ccc(-n4cnnn4)nc3)n2)CC1` [Example 54, (S)-tert-Butyl 1-(4-(4-((6-(1H-tetrazol-1-yl)pyridin-3-yloxy)methyl)-2H-1,2,3-triazol-2-yl)piperidin-1-yl)-1-oxopropan-2-ylcarbamate], the “% activity at 3 μM” value worked out at 36.82%.
Turning to `C[C@H](N)C(=O)N1CCC(n2ncc(COc3ccc(-n4cnnn4)nc3)n2)CC1` [Example 55, (S)-1-(4-(4-((6-(1H-tetrazol-1-yl)pyridin-3-yloxy)methyl)-2H-1,2,3-triazol-2-yl)piperidin-1-yl)-2-aminopropan-1-one hydrochloride], the “% activity at 3 μM” value came to 31.89%.
For `CC(C)(C)OC(=O)N[C@H](CC(=O)N1CCC(n2ncc(COc3ccc(-n4cnnn4)nc3)n2)CC1)Cc1cc(F)c(F)cc1F` [Example 56, (S)-tert-Butyl 4-(4-(4-((6-(1H-tetrazol-1-yl)pyridin-3-yloxy)methyl)-2H-1,2,3-triazol-2-yl)piperidin-1-yl)-4-oxo-1-(2,4,5-trifluorophenyl)butan-2-ylcarbamate] the value was 7.31%; for `N[C@H](CC(=O)N1CCC(n2ncc(COc3ccc(-n4cnnn4)nc3)n2)CC1)Cc1cc(F)c(F)cc1F` [Example 57, (S)-1-(4-(4-((6-(1H-tetrazol-1-yl)pyridin-3-yloxy)methyl)-2H-1,2,3-triazol-2-yl)piperidin-1-yl)-3-amino-4-(2,4,5-trifluorophenyl)butan-1-one hydrochloride], 27.80%.
For `CCOC(=O)CCCc1cnc(N2CCC(n3ncc(COc4ccc(-n5cnnn5)nc4)n3)CC2)nc1` [Example 58, Ethyl 4-(2-(4-(4-((6-(1H-tetrazol-1-yl)pyridin-3-yloxy)methyl)-2H-1,2,3-triazol-2-yl)piperidin-1-yl)pyrimidin-5-yl)butanoate] the value was 79.55%.
As for `CCOC(=O)c1cnc(N2CCC(n3ncc(COc4ccc(-n5cnnn5)nc4)n3)CC2)nc1` [Example 60], the “% activity at 3 μM” value was 27.86%.
For the compound `O=C(c1cnc(N2CCC(n3ncc(COc4ccc(-n5cnnn5)nc4)n3)CC2)nc1)N1CCOCC1` [Example 61], the “% activity at 3 μM” value is recorded as 43.59%.
In the case of `O=C(c1ncc(Br)cn1)N1CCC(n2ncc(COc3ccc(-n4cnnn4)nc3)n2)CC1` [Example 62, (4-(4-((6-(1H-tetrazol-1-yl)pyridin-3-yloxy)methyl)-2H-1,2,3-triazol-2-yl)piperidin-1-yl)(5-bromopyrimidin-2-yl)methanone], the “% activity at 3 μM” value was determined as 32.06%.
Turning to `Cc1nc(-n2cncn2)ccc1OCc1cnn(C2CCN(c3ncc(C(F)(F)F)cn3)CC2)n1` [Example 64, 2-(4-(4-((2-Methyl-6-(1H-1,2,4-triazol-1-yl)pyridin-3-yloxy)methyl)-2H-1,2,3-triazol-2-yl)piperidin-1-yl)-5-(trifluoromethyl)pyrimidine], the “% activity at 3 μM” value worked out at 66.18%.
As to `CCc1cnc(N2CCC(n3ncc(COc4ccc(-n5cncn5)nc4C)n3)CC2)nc1` [Example 65, 5-Ethyl-2-(4-(4-((2-methyl-6-(1H-1,2,4-triazol-1-yl)pyridin-3-yloxy)methyl)-2H-1,2,3-triazol-2-yl)piperidin-1-yl)pyrimidine], the “% activity at 3 μM” value came to 70.03%.
On to `CCc1cnc(N2CCC(n3cc(COc4ccc(-n5cnnn5)cc4F)c(C(F)(F)F)n3)CC2)nc1` [Example 66, 5-Ethyl-2-(4-(4-((2-fluoro-4-(1H-tetrazol-1-yl)phenoxy)methyl)-3-(trifluoromethyl)-1H-pyrazol-1-yl)piperidin-1-yl)pyrimidine], for which the “% activity at 3 μM” value was 80.00%.
Then `CCc1cnc(N2CCC(n3cc(COc4ccc(S(C)(=O)=O)cc4F)c(C(F)(F)F)n3)CC2)nc1` [Example 67, 5-Ethyl-2-(4-(4-((2-fluoro-4-(methylsulfonyl)phenoxy)methyl)-3-(trifluoromethyl)-1H-pyrazol-1-yl)piperidin-1-yl)pyrimidine], with 57.87%; and `CCc1cnc(N2CCC(n3ncc(COc4ccc(-n5cnnn5)cc4F)c3C(F)(F)F)CC2)nc1` [Example 68, 5-Ethyl-2-(4-(4-((2-fluoro-4-(1H-tetrazol-1-yl)phenoxy)methyl)-5-(trifluoromethyl)-1H-pyrazol-1-yl)piperidin-1-yl)pyrimidine], with 74.11%; and `CC1CC(n2ncc(COc3ccc(-n4cnnn4)cc3F)n2)CCN1c1ncc(Cl)cn1` (stereo not drawn) [Example 69, 5-Chloro-2-(4-(4-((2-fluoro-4-(1H-tetrazol-1-yl)phenoxy)methyl)-2H-1,2,3-triazol-2-yl)-2-methylpiperidin-1-yl)pyrimidine], with 55.22%.
Then `CC1CC(n2ncc(COc3ccc(-n4cnnn4)cc3F)n2)CCN1c1ncc(C(F)(F)F)cn1` (stereo not drawn) [Example 70, 2-(4-(4-((2-Fluoro-4-(1H-tetrazol-1-yl)phenoxy)methyl)-2H-1,2,3-triazol-2-yl)-2-methylpiperidin-1-yl)-5-(trifluoromethyl)pyrimidine], with 66.77%.
